According to patent US11865118B2, “Heterocyclic compounds and their use in preventing or treating bacterial infections” (MUTABILIS, priority 2018, dated 2024):
Where a name gives a salt, the structure may show the parent alone.

What was measured:
Test in all cases: MIC of compounds alone, broth microdilution (CLSI)
Format in all cases: cell-based
E. cloacae ECL P99 = details: Enterobacter cloacae, ECLP99, substance alone, AmpC
Method: (§1) Compounds of the present invention were assessed against genotyped bacterial strains alone or in combination with the β-lactam ceftazidime.

E. coli ECO 190317 = details: Escherichia coli, ECO190317, substance alone, TEM-1, SHV-12, CTX-M-15, OXA-1
Method: as §1

E. coli ECO UFR39 = details: Escherichia coli, ECOUFR39, substance alone, CTX-M-15, NDM-1
Method: as §1

K. pneumoniae KPN 121206 = details: Klebsiella pneumoniae, KPN121206, substance alone, SHV-1, NDM-1
Method: as §1

[1] = tested on: P. aeruginosa PAE 105250 (AH); details: Pseudomonas aeruginosa, substance alone, OXA-15
Method: as §1

P. aeruginosa PAE 107051 = details: Pseudomonas aeruginosa, PAE107051, substance alone, TEM-24, OXA-1
Method: as §1

P. aeruginosa PAE UFR49 = details: Pseudomonas aeruginosa, PAEUFR49, substance alone, VIM-2
Method: as §1

P. aeruginosa PAE UFR92 = details: Pseudomonas aeruginosa, PAEUFR92, read-out: MIC alone PAE UFR92
Method: as §1

Compound	MIC (E. cloacae ECL P99) [µg/mL]	MIC (E. coli ECO 190317) [µg/mL]	MIC (E. coli ECO UFR39) [µg/mL]	MIC (K. pneumoniae KPN 121206) [µg/mL]	MIC [1] [µg/mL]	MIC (P. aeruginosa PAE 107051) [µg/mL]	MIC (P. aeruginosa PAE UFR49) [µg/mL]	MIC (P. aeruginosa PAE UFR92) [µg/mL]
CCOC(=O)[C@@H]1c2c(-c3ccc(F)cc3)csc2[C@@H]2CN1C(=O)N2OS(=O)(=O)[O-].[Na+] [Example 8]	> 32	> 32	> 32	> 32	> 32	> 32	> 32	> 32
CC(=O)Nc1nc2c(s1)C1CN(C2)C(=O)N1OS(=O)(=O)[O-].[Na+] (stereo not drawn) [Example 6]	16	2	4	> 32	> 32	> 32	> 32	> 32
NCc1nc2c(s1)C1CN(C2)C(=O)N1OS(=O)(=O)O (stereo not drawn) [Example 4]	1	0.25	0.25	32	32	> 32	32	32
N=C(N)NCCNC(=O)c1nc2c(s1)C1CN(C2)C(=O)N1OS(=O)(=O)O (stereo not drawn) [Example 3, [2-(2-quanidinoethylcarbamoyl)-5,8-methano-6-oxo-4,8-dihydrothiazolo[4,5-e][1,3]diazepin-7-yl]sulfonic acid]	0.5	0.5	2	16	8	4	16	8
CN(C)C(=O)[C@H]1c2nc(C(=O)NCCNC(=N)N)sc2[C@@H]2CN1C(=O)N2OS(=O)(=O)O (relative stereo) [Example 9, [trans-4-(dimethylcarbamoyl)-2-(2-guanidinoethylcarbamoyl)-5,8-methano-6-oxo-4,8-dihydrothiazolo[4,5-e][1,3]diazepin-7-yl] hydrogen sulfate]	> 32	32	> 32	> 32	8	8	4	32
N=C(N)NCc1nc2c(s1)C1CN(C2)C(=O)N1OS(=O)(=O)O (stereo not drawn) [Example 2]	1	0.063	0.125	> 32	4	2	4	4
CN(C)C(=O)[C@@H]1c2c(CCNC(=N)N)csc2C2CN1C(=O)N2OS(=O)(=O)O (stereo in doubt) [Example 11, [(trans-4-(dimethylcarbamoyl)-3-(2-quanidinoethyl)-5,8-methano-6-oxo-4,8-dihydrothieno[2,3-e][1,3]diazepin-7-yl] hydrogen sulfate]	16	4	> 32	> 32	4	4	4	8
CN(C)C(=O)[C@@H]1c2c(CNC(=N)N)csc2[C@H]2CN1C(=O)N2OS(=O)(=O)O.O=C(O)C(F)(F)F (relative stereo) [Example 10, [N-[[trans-4-(dimethylcarbamoyl)-5,8-methano-6-oxo-7-sulfooxy-4,8-dihydrothieno[2,3-e][1,3]diazepin-3-yl]methyl]carbamimidoyl]ammonium 2,2,2-trifluoroacetate]	16	2	32	32	8	4	8	8
O=C1N2Cc3ccsc3C(C2)N1OS(=O)(=O)[O-].[Na+] (stereo not drawn) [Example 7]	8	2	4	> 32	> 32	> 32	> 32	> 32
O=C(Nc1nc2c(s1)C1CN(C2)C(=O)N1OS(=O)(=O)[O-])OCc1ccccc1.[Na+] (stereo not drawn) [Example 5]	> 32	> 32	> 32	> 32	> 32	> 32	> 32	> 32
NCCNC(=O)c1nc2c(s1)C1CN(C2)C(=O)N1S(=O)(=O)O (stereo not drawn) [Example 1, [2-(2-aminoethylcarbamoyl)-5,8-methano-6-oxo-4,8-dihydrothiazolo[4,5-e][1,3]diazepin-7-yl]sulfonic acid]	2	0.25	0.5	32	8	8	16	8
CC(C)(O/N=C(\C(=O)N[C@@H]1C(=O)N2C(C(=O)[O-])=C(C[n+]3ccccc3)CS[C@H]12)c1csc(N)n1)C(=O)O [CAZ, ceftazidime]	128	128	> 256	> 256	256	256	64	32
